pIC50: −log10 of the molar value. Each block holds one compound with its values, some of them ahead of it.
Tests used:
[1] = Hepatocyte (Hep) intrinsic clearance, rat; assay type: in vitro ADME; details: hepatocytes
[2] = Liver microsome (LM) intrinsic clearance, rat; assay type: in vitro ADME
[3] = target: T1, adenosine A3 receptor (Homo sapiens (Human), UniProt P0DMS8); experiment: A3 cAMP IC50 assay (Table 1); assay type: biochemical
[4] = target: adenosine A2A receptor (Homo sapiens (Human), UniProt P29274); experiment: Adenosine receptor activity assay (Table 1), A2A activity; assay type: biochemical; details: read-out: Ave A2A cAMP IC50
[5] = Liver microsome (LM) intrinsic clearance, human; assay type: in vitro ADME
[6] = target: CYP2D6 (Homo sapiens (Human), UniProt P10635); experiment: CYP450 inhibition at 10 μM, CYP2D6; assay type: in vitro ADME; details: read-out: CYP 450 % INH @ 10 μM
[7] = target: T2, adenosine A1 receptor (Homo sapiens (Human), UniProt P30542); experiment: A1 cAMP IC50 assay (Table 1); assay type: biochemical
[8] = Hepatocyte (Hep) intrinsic clearance, dog; assay type: in vitro ADME; details: hepatocytes
[9] = target: adenosine A2B receptor (Homo sapiens (Human), UniProt P29275); experiment: Adenosine receptor activity assay (Table 1), A2B activity; assay type: biochemical; details: for pIC50: read-out: Ave A2B cAMP IC50
[10] = Hepatocyte (Hep) intrinsic clearance, human; assay type: in vitro ADME; details: hepatocytes
[11] = target: CYP3A4 (Homo sapiens (Human), UniProt P08684); experiment: CYP450 inhibition at 10 μM, CYP3A4; assay type: in vitro ADME; details: human, 10 μM, read-out: CYP 450 % INH @ 10 μM
[12] = Liver microsome intrinsic clearance, human; assay type: in vitro ADME
[13] = Liver microsome intrinsic clearance, rat; assay type: in vitro ADME
[14] = target: T1, adenosine A3 receptor; experiment: Adenosine receptor activity assay (Table 1), A3 cAMP; assay type: cell-based
[15] = target: T2, adenosine A1 receptor; experiment: Adenosine receptor activity assay (Table 1), A1 cAMP; assay type: cell-based
[16] = target: T1, adenosine A3 receptor; experiment: Adenosine receptor activity assay (Table 1), A3 cAMP; assay type: biochemical
Description: (§1) Table 1. Compounds (e.g., Adenosine Receptor modulators) and activity assay results. The legend is as follows: A=<10 nM; B=10-50 nM; C=50-100 nM; D=100-500; and E=>500 nM. The ratio corresponds to the A2A activity to the A2B activity; or A2A/A2B.

[17] = Liver microsome intrinsic clearance (LM CLint), rat; assay type: in vitro ADME
[18] = Liver microsome intrinsic clearance (LM CLint), human; assay type: in vitro ADME
[19] = target: T2, adenosine A1 receptor; experiment: Adenosine receptor activity assay (Table 1), A1 cAMP; assay type: biochemical
Description: as §1

[20] = A2A activity to A2B activity (A2A/A2B)
[21] = A2A activity to the A2B activity, A2A/A2B

T1 sequence (P0DMS8 whole entry): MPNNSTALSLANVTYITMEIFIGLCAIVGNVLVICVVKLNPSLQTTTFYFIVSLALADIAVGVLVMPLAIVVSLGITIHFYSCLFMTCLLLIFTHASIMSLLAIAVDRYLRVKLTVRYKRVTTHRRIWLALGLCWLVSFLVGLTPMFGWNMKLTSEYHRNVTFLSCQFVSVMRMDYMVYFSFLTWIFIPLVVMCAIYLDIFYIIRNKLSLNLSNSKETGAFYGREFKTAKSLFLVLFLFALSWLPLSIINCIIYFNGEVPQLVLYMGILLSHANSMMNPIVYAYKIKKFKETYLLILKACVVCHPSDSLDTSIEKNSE
Chain of adenosine A2A receptor (P29274 whole entry): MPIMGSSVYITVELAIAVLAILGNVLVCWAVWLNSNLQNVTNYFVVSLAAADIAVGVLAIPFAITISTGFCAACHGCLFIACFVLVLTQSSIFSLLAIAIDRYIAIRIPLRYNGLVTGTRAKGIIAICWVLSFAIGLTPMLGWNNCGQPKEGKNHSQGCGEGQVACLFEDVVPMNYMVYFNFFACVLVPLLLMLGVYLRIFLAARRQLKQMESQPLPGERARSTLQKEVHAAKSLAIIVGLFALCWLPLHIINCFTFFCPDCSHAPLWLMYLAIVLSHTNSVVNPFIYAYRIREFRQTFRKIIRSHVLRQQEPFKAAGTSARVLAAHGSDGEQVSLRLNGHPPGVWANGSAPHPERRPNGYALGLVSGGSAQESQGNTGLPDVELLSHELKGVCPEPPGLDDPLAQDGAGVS
T2 sequence (P30542 whole entry): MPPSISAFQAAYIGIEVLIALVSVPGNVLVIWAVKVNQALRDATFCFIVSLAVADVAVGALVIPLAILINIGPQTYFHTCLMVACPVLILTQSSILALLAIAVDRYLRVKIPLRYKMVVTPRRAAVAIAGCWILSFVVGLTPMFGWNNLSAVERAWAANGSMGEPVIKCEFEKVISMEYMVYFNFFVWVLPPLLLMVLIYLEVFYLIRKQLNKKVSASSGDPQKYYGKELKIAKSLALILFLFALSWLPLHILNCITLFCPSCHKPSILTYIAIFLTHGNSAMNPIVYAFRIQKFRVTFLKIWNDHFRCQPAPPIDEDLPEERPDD
Chain of adenosine A2B receptor (P29275 whole entry): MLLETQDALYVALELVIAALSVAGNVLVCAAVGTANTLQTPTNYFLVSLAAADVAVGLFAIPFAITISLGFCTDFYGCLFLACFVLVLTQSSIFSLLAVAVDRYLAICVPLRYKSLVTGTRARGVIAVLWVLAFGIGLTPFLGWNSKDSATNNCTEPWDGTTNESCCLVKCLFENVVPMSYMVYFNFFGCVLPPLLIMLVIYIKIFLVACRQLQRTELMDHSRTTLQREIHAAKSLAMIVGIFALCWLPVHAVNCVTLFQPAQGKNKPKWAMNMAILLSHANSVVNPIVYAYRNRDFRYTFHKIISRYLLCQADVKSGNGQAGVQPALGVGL
Chain of CYP2D6 (P10635 whole entry): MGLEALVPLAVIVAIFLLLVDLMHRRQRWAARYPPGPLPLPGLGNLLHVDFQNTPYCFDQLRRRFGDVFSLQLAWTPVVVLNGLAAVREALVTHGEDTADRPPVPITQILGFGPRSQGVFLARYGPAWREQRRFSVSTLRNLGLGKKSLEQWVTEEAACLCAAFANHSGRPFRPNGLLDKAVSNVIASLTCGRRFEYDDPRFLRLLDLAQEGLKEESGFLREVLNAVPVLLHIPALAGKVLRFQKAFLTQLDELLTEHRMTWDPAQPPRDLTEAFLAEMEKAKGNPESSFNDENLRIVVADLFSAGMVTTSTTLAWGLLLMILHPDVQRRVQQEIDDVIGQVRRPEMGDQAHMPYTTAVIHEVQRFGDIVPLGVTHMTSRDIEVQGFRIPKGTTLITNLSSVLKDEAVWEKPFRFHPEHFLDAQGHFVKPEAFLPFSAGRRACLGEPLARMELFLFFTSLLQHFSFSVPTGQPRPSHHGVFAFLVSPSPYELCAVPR
Chain of CYP3A4 (P08684 whole entry): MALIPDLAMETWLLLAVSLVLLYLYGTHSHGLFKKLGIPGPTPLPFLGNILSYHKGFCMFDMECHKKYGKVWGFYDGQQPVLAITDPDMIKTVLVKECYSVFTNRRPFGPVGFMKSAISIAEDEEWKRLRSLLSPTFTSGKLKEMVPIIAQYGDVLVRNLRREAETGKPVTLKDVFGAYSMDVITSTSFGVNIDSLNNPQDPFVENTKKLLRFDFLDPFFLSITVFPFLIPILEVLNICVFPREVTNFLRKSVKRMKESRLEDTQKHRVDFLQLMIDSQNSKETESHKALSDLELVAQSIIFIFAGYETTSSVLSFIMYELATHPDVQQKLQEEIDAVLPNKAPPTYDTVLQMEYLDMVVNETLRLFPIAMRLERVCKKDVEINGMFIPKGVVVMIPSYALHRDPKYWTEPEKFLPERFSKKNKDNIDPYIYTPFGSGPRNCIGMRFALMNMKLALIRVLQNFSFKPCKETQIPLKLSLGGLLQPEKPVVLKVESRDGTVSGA

SMILES: C[C@H](Nc1nc(C(=O)N2CC[C@@H](O)C2)c2sccc2n1)c1ccccn1 [Example Z59, ((R)-3-Hydroxypyrrolidin-1-yl)(2-(((S)-1-(pyridin-2-yl)ethyl)amino)thieno[3,2-d]pyrimidin-4-yl)methanone]
hepatocyte CLint [1]: 8.7 µL/min/1e6 cells
LM CLint [2]: 4.86 μL/min/mg/protein
pIC50 [3]: < 6.30
pIC50 [4]: 6.30 to 7.00
LM CLint [5]: 4.87 μL/min/mg/protein
inhibition at 10 µM [6]: 15%
pIC50 [7]: < 6.30
hepatocyte CLint [8]: 4.19 µL/min/1e6 cells
Ratio [9, 20]: 12.76
pIC50 [9]: 7.30 to 8.00
hepatocyte CLint [10]: 1.5 µL/min/1e6 cells
inhibition at 10 µM [11]: 0%

SMILES: CO[C@@H]1CCN(C(=O)c2nc(N[C@@H](C)c3ccccn3)nc3cc(C)sc23)C1 [Example Z312, ((R)-3-Methoxypyrrolidin-1-yl)(6-methyl-2-(((S)-1-(pyridin-2-yl)ethyl)amino)thieno[3,2-d]pyrimidin-4-yl)methanone]
LM CLint [12]: 10.94 μL/min/mg/protein
pIC50 [4]: 7.30 to 8.00
LM CLint [13]: 57.04 μL/min/mg/protein
pIC50 [14]: 7.00 to 7.30
Ratio [9, 20]: 3.05
pIC50 [9]: > 8.00
pIC50 [15]: < 6.30

SMILES: Cc1cc2nc(N[C@@H](C)c3cccnc3)nc(C(=O)N3CC[C@@H](CO)C3)c2s1 [Example Z335, ((R)-3-(Hydroxymethyl)pyrrolidin-1-yl)(6-methyl-2-(((S)-1-(pyridin-3-yl)ethyl)amino)thieno[3,2-d]pyrimidin-4-yl)methanone]
LM CLint [12]: 10.36 μL/min/mg/protein
pIC50 [4]: < 6.30
LM CLint [13]: 33.31 μL/min/mg/protein
pIC50 [14]: < 6.30
Ratio [9, 20]: 200.00
pIC50 [9]: > 8.00
pIC50 [15]: < 6.30

SMILES: C[C@H](Nc1nc(C(=O)N2CC[C@@H](O)C2)c2sc(C(F)(F)F)cc2n1)c1cccnc1 [Example Z337, ((R)-3-Hydroxypyrrolidin-1-yl)(2-(((S)-1-(pyridin-3-yl)ethyl)amino)-6-(trifluoromethyl)thieno[3,2-d]pyrimidin-4-yl)methanone]
LM CLint [12]: 20.68 μL/min/mg/protein
pIC50 [4]: < 6.30
LM CLint [13]: 13.69 μL/min/mg/protein
pIC50 [14]: < 6.30
Ratio [9, 20]: 120.82
pIC50 [9]: 7.30 to 8.00
pIC50 [15]: < 6.30

SMILES: C[C@H](Nc1nc(C(=O)NCCc2ccc(O)cc2)c2sccc2n1)c1cncc(F)c1 [Example Z340, (S)-2-((1-(5-Fluoropyridin-3-yl)ethyl)amino)-N-(4-hydroxyphenethyl)thieno[3,2-d]pyrimidine-4-carboxamide]
LM CLint [12]: 258.52 μL/min/mg/protein
pIC50 [4]: 6.30 to 7.00
LM CLint [13]: 504.21 μL/min/mg/protein
pIC50 [14]: < 6.30
Ratio [9, 20]: 95.47
pIC50 [9]: > 8.00
pIC50 [15]: < 6.30

SMILES: Cc1cc2nc(N[C@@H](C)c3cncc(F)c3)nc(C(=O)N3CC[C@H](N)C3)c2s1 [Example Z412, ((S)-3-Aminopyrrolidin-1-yl)(2-(((S)-1-(5-fluoropyridin-3-yl)ethyl)amino)-6-methylthieno[3,2-d]pyrimidin-4-yl)methanone]
pIC50 [16]: < 6.30
LM CLint [17]: 26.34 μL/min/mg/protein
pIC50 [4]: < 6.30
Ratio [9, 21]: 166.77
pIC50 [9]: 7.30 to 8.00
LM CLint [18]: 0.15 μL/min/mg/protein
pIC50 [19]: < 6.30

SMILES: Cc1csc2c(C(=O)N3CCC3)nc(N[C@@H](C)c3cncc(F)c3)nc12 [Example Z415, (S)-Azetidin-1-yl(2-((1-(5-fluoropyridin-3-yl)ethyl)amino)-7-methylthieno[3,2-d]pyrimidin-4-yl)methanone]
pIC50 [16]: < 6.30
LM CLint [17]: 56.26 μL/min/mg/protein
pIC50 [4]: 7.30 to 8.00
Ratio [9, 21]: 21.01
pIC50 [9]: > 8.00
LM CLint [18]: 82.97 μL/min/mg/protein
pIC50 [19]: 7.00 to 7.30

Other lines, results leading:

LM CLint [17]: 9.09 μL/min/mg/protein
pIC50 [9]: 7.30 to 8.00
LM CLint [18]: 0.69 μL/min/mg/protein
SMILES: C[C@H](Nc1nc(C(=O)N2CC(CN)C2)c2sccc2n1)c1cncc(F)c1 [Example Z419, (S)-(3-(Aminomethyl)azetidin-1-yl)(2-((1-(5-fluoropyridin-3-yl)ethyl)amino)thieno[3,2-d]pyrimidin-4-yl)methanone]

LM CLint [17]: 85.16 μL/min/mg/protein
pIC50 [9]: 7.30 to 8.00
LM CLint [18]: 228.45 μL/min/mg/protein
SMILES: CC(=O)Nc1ccc(CCNC(=O)c2nc(N[C@@H](C)c3cncc(F)c3)nc3ccsc23)cc1 [Example Z421, (S)—N-(4-Acetamidophenethyl)-2-((1-(5-fluoropyridin-3-yl)ethyl)amino)thieno[3,2-d]pyrimidine-4-carboxamide]

pIC50 [16]: < 6.30
LM CLint [17]: 4.83 μL/min/mg/protein
pIC50 [4]: < 6.30
Ratio [9, 21]: 177.08
pIC50 [9]: > 8.00
LM CLint [18]: 5.77 μL/min/mg/protein
pIC50 [19]: < 6.30
SMILES: Cc1cc2nc(N[C@@H](C)c3cncc(F)c3)nc(C(=O)N3CC(N)C3)c2s1 [Example Z430, (S)-(3-Aminoazetidin-1-yl)(2-((1-(5-fluoropyridin-3-yl)ethyl)amino)-6-methylthieno[3,2-d]pyrimidin-4-yl)methanone]

pIC50 [16]: 7.00 to 7.30
LM CLint [17]: 314.14 μL/min/mg/protein
pIC50 [4]: 7.30 to 8.00
Ratio [9, 21]: 0.64
pIC50 [9]: 7.30 to 8.00
LM CLint [18]: 82.93 μL/min/mg/protein
pIC50 [19]: < 6.30
SMILES: COc1cccc(CNC(=O)c2nc(N[C@@H](C)c3ccccn3)nc3c(C)csc23)n1 [Example Z450, (S)—N-((6-Methoxypyridin-2-yl)methyl)-7-methyl-2-((1-(pyridin-2-yl)ethyl)amino)thieno[3,2-d]pyrimidine-4-carboxamide]

pIC50 [16]: < 6.30
LM CLint [17]: 48.47 μL/min/mg/protein
pIC50 [4]: < 6.30
Ratio [9, 21]: 159.87
pIC50 [9]: 7.30 to 8.00
LM CLint [18]: 4.85 μL/min/mg/protein
pIC50 [19]: < 6.30
SMILES: Cc1cc2nc(N[C@@H](C)c3cncc(F)c3)nc(C(=O)NCC[C@H]3CCNC3)c2s1 [Example Z463, 2-(((S)-1-(5-Fluoropyridin-3-yl)ethyl)amino)-6-methyl-N-(2-((R)-pyrrolidin-3-yl)ethyl)thieno[3,2-d]pyrimidine-4-carboxamide]

pIC50 [16]: < 6.30
LM CLint [17]: 75.91 μL/min/mg/protein
pIC50 [4]: 7.30 to 8.00
Ratio [9, 21]: 0.22
pIC50 [9]: < 6.30
LM CLint [18]: 35.20 μL/min/mg/protein
pIC50 [19]: < 6.30
SMILES: COc1ccc([C@@H](C)Nc2nc(C(=O)NCc3ccc(OC)nc3)c3sccc3n2)cc1 [Example Z465, (R)-2-((1-(4-Methoxyphenyl)ethyl)amino)-N-((6-methoxypyridin-3-yl)methyl)thieno[3,2-d]pyrimidine-4-carboxamide]

pIC50 [16]: < 6.30
LM CLint [17]: 16.99 μL/min/mg/protein
pIC50 [4]: 7.30 to 8.00
Ratio [9, 21]: 4.68
pIC50 [9]: > 8.00
LM CLint [18]: 6.17 μL/min/mg/protein
pIC50 [19]: < 6.30
SMILES: C[C@H](Nc1nc(C(=O)N2CC(NC(=O)C3CC3)C2)c2sccc2n1)c1cncc(F)c1 [Example Z517, (S)—N-(1-(2-((1-(5-Fluoropyridin-3-yl)ethyl)amino)thieno[3,2-d]pyrimidine-4-carbonyl)azetidin-3-yl)cyclopropanecarboxamide]
